# Reference: US9249129B2, “Morpholino substituted urea derivatives as mTOR inhibitors” (CELLZOME LIMITED, priority 2010, dated 2016)
# How the values were obtained:
# Assay in all cases: kinobeads assay with mass spectrometry detection of kinases (kinase selectivity profile)
# Format in all cases: binding
# [1] = molecular target: T1, kinases (kinome) (Homo sapiens, UniProt O43353); conditions: RIPK2 (TKL), IPI00021917
# T1 construct: determined in kinobeads assays with mass spectrometry detection of kinases as described previously; endogenous in cells; host or cells: cell lysate
# T1 sequence (O43353 whole entry): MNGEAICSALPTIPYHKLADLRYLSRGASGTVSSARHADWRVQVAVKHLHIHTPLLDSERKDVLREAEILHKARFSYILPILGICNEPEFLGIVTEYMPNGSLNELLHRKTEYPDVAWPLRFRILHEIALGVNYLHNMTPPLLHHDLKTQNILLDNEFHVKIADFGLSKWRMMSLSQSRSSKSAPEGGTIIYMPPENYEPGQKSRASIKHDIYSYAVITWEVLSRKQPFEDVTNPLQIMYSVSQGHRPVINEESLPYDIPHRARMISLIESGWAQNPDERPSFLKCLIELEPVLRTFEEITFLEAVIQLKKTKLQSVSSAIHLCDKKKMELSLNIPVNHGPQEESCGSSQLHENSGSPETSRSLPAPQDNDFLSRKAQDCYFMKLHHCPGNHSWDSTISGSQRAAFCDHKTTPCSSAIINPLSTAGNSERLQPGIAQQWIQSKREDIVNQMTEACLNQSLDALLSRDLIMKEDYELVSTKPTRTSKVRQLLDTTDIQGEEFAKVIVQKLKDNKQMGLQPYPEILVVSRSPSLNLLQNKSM
# From the text: (§1) The protein kinase complement of the human genome (the kinome) was described previously (Manning et al., 2002. Science 298(5600):1912-1934). Sequence accession numbers are defined by the International Protein Index (IPI) (Kersey et al., 2004. Proteomics 4(7):1985-1988).
# [2] = molecular target: T2, kinases (kinome) (Homo sapiens, UniProt P05771); conditions: PKCb (AGC), IPI00219628
# T2 construct: determined in kinobeads assays with mass spectrometry detection of kinases as described previously; endogenous in cells; host or cells: cell lysate
# T2 sequence (P05771 whole entry): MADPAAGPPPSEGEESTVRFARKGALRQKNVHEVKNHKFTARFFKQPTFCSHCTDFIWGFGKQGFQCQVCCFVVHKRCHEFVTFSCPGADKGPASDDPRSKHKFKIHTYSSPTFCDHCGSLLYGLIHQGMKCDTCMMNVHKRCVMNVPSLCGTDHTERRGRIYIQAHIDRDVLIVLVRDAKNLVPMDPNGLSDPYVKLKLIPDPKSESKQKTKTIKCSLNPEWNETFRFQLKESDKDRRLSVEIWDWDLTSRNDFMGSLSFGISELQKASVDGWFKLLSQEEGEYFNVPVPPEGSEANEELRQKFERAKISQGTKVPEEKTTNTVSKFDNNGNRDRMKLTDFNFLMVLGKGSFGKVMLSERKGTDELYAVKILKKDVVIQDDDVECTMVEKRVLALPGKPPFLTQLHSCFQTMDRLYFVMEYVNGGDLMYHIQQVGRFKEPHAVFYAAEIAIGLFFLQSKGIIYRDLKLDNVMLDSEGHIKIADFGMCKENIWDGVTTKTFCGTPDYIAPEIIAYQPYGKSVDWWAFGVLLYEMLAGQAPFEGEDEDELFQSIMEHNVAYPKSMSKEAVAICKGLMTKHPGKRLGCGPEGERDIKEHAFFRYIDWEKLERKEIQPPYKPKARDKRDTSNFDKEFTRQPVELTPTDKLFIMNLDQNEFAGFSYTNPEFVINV
# From the text: as §1
# [3] = molecular target: T3, kinases (kinome) (Homo sapiens, UniProt P19784); conditions: CK2a2 (Other), IPI00020602
# T3 construct: determined in kinobeads assays with mass spectrometry detection of kinases as described previously; endogenous in cells; host or cells: cell lysate
# T3 sequence (P19784 whole entry): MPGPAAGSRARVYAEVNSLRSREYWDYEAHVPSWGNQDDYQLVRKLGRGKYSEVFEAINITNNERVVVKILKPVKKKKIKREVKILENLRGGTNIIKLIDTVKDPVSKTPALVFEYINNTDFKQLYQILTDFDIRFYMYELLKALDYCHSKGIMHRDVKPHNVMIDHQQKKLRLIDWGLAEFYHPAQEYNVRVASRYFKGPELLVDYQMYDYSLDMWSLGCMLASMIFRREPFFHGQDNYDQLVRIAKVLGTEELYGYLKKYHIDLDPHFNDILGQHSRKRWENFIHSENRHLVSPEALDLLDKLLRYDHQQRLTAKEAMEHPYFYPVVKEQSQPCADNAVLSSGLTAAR
# From the text: as §1
# [4] = molecular target: T4, kinases (kinome) (Homo sapiens, UniProt P36896); conditions: ALK4 (TKL), IPI00005732
# T4 construct: determined in kinobeads assays with mass spectrometry detection of kinases as described previously; endogenous in cells; host or cells: cell lysate
# T4 sequence (P36896 24-505): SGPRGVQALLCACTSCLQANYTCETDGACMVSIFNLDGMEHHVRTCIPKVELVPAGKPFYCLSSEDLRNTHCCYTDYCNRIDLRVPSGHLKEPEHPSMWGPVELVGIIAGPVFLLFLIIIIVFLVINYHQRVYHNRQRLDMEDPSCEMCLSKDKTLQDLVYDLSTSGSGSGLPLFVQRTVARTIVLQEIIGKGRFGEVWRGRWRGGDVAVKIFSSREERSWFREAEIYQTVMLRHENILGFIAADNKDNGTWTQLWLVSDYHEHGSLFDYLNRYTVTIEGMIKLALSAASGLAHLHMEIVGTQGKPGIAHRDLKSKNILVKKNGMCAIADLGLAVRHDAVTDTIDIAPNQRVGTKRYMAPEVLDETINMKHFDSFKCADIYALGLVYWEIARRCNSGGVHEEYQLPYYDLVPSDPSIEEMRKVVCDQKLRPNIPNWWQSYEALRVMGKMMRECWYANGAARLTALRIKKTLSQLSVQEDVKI
# From the text: as §1
# [5] = molecular target: T5, kinases (kinome) (Homo sapiens, UniProt P43405); conditions: SYK (TK), IPI00018597
# T5 construct: determined in kinobeads assays with mass spectrometry detection of kinases as described previously; endogenous in cells; host or cells: cell lysate
# From the text: as §1
# [6] = molecular target: T6, kinases (kinome) (Homo sapiens, UniProt P45983); conditions: JNK1 (CMGC), IPI00220306
# T6 construct: determined in kinobeads assays with mass spectrometry detection of kinases as described previously; endogenous in cells; host or cells: cell lysate
# T6 sequence (P45983 whole entry): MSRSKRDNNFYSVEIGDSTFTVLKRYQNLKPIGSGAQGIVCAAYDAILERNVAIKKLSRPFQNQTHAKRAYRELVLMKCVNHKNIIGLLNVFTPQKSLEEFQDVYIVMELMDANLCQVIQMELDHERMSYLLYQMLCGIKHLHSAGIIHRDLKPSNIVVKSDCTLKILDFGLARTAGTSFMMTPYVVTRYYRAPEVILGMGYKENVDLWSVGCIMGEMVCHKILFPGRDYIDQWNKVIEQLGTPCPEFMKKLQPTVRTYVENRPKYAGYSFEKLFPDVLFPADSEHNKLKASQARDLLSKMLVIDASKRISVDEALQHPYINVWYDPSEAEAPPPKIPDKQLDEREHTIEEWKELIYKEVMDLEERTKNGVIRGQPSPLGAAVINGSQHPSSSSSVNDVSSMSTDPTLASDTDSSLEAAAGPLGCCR
# From the text: as §1
# [7] = molecular target: T7, kinases (kinome) (Homo sapiens, UniProt P48736); conditions: PIK3Cg (Lipid Kinase), IPI00292690
# T7 construct: determined in kinobeads assays with mass spectrometry detection of kinases as described previously; endogenous in cells; host or cells: cell lysate
# T7 sequence (P48736 whole entry): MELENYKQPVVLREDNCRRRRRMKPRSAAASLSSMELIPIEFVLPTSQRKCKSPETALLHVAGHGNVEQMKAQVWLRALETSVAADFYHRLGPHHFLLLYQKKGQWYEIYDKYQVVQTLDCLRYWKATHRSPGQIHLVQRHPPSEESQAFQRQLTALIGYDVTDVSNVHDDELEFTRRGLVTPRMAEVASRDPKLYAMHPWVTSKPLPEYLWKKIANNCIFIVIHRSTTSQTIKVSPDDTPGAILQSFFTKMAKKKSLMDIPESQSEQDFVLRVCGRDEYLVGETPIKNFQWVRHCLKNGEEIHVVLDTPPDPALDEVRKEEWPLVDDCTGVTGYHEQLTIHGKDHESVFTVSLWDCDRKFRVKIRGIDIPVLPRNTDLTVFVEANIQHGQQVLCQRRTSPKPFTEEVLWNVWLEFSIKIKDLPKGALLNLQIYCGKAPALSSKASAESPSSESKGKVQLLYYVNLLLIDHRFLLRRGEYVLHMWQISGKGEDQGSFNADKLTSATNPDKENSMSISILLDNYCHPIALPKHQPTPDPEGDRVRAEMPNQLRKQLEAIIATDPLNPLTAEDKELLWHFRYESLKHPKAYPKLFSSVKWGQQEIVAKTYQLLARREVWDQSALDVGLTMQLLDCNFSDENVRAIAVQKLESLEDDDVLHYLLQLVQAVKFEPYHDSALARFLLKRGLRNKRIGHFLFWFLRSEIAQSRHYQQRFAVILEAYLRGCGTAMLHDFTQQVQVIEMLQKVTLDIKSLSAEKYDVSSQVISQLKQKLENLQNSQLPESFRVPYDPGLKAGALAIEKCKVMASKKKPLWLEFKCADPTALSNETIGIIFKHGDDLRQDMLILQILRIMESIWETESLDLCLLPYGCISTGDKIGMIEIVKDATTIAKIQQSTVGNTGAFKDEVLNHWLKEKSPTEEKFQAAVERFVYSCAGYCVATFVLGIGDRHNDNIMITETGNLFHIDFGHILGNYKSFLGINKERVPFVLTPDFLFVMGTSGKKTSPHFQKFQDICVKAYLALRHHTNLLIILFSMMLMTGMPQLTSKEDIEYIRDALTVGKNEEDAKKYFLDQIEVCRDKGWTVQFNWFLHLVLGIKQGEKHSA
# From the text: as §1
# [8] = molecular target: T8, kinases (kinome) (Homo sapiens, UniProt P49840); conditions: GSK3A (CMGC), IPI00292228
# T8 construct: determined in kinobeads assays with mass spectrometry detection of kinases as described previously; endogenous in cells; host or cells: cell lysate
# T8 sequence (P49840 whole entry): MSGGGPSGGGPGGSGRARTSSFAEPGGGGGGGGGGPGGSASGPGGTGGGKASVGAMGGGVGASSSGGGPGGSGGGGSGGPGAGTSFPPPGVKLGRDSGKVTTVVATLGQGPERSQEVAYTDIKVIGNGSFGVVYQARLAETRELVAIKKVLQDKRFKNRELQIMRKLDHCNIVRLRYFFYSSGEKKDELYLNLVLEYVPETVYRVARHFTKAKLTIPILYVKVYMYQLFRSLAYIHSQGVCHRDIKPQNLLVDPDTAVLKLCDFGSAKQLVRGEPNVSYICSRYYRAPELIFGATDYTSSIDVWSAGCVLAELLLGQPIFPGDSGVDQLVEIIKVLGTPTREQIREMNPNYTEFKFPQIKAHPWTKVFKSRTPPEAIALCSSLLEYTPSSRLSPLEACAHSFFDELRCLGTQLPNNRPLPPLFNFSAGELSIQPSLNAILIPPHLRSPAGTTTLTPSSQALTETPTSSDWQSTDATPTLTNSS
# From the text: as §1
# [9] = molecular target: T9, kinases (kinome) (Homo sapiens, UniProt Q08881); conditions: ITK (TK), IPI00004566
# T9 construct: determined in kinobeads assays with mass spectrometry detection of kinases as described previously; endogenous in cells; host or cells: cell lysate
# T9 sequence (Q08881 1-620): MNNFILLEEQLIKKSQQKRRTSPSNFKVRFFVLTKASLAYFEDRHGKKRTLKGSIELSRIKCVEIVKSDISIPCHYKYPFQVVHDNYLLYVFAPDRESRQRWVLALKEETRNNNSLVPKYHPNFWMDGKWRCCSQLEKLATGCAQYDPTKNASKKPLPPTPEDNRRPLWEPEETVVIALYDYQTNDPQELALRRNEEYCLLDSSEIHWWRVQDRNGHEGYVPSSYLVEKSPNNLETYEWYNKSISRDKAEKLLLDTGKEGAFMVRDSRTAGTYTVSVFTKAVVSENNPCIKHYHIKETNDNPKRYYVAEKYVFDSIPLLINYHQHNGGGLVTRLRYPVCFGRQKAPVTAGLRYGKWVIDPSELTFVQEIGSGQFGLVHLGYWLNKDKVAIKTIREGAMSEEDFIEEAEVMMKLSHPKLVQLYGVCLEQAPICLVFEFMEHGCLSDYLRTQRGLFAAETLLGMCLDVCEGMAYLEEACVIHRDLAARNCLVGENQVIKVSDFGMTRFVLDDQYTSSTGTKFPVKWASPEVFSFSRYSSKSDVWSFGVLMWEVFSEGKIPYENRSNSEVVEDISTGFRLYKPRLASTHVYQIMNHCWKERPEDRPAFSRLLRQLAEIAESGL
# From the text: as §1
# [10] = molecular target: T10, kinases (kinome) (Homo sapiens, UniProt Q9BVS4); conditions: RIOK2 (Atypical), IPI00306406
# T10 construct: determined in kinobeads assays with mass spectrometry detection of kinases as described previously; endogenous in cells; host or cells: cell lysate
# T10 sequence (Q9BVS4 whole entry): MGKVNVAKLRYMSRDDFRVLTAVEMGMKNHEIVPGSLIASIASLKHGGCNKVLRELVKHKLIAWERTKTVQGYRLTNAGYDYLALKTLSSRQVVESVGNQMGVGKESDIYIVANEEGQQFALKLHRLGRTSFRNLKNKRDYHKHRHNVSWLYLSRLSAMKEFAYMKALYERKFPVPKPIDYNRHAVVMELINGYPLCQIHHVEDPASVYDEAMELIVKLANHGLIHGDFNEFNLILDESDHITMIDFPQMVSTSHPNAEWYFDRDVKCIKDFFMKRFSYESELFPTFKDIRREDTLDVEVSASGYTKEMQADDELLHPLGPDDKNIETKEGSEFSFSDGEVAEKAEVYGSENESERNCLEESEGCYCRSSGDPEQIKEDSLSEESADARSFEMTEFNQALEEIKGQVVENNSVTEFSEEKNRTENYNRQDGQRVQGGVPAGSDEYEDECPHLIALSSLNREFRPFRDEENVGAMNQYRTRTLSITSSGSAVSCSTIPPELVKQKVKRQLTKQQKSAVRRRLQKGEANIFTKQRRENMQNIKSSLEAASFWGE
# From the text: as §1
# [11] = molecular target: T11, kinases (kinome) (Homo sapiens, UniProt Q9H2K8); conditions: TAO3 (STE), IPI00410485
# T11 construct: determined in kinobeads assays with mass spectrometry detection of kinases as described previously; endogenous in cells; host or cells: cell lysate
# T11 sequence (Q9H2K8 1-898): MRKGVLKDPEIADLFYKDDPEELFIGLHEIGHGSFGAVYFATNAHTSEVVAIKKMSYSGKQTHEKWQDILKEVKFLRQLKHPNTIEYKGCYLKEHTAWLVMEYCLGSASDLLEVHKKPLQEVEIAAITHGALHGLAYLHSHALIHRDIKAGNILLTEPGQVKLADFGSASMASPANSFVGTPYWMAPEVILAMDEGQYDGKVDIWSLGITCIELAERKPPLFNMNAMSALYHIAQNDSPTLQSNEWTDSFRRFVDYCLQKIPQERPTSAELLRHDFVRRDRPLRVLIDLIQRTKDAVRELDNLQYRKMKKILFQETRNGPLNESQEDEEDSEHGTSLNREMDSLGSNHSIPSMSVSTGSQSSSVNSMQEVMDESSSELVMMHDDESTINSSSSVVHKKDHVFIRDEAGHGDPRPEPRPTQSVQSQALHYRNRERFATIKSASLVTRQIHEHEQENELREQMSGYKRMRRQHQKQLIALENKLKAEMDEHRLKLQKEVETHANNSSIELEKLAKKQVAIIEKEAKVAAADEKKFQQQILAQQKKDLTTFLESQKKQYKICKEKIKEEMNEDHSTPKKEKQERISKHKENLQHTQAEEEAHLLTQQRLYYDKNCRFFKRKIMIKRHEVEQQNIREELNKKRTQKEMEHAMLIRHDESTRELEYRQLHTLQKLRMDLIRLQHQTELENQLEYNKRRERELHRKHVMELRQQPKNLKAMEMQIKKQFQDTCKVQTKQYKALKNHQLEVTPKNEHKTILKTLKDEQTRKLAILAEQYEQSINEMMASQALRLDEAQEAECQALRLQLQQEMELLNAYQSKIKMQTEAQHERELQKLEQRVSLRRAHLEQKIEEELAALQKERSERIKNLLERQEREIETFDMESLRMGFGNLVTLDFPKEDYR
# From the text: as §1
# [12] = molecular target: T12, kinases (kinome) (Homo sapiens, UniProt Q9HCP0); conditions: CK1g1 (CK1), IPI00791893
# T12 construct: determined in kinobeads assays with mass spectrometry detection of kinases as described previously; endogenous in cells; host or cells: cell lysate
# T12 sequence (Q9HCP0 whole entry): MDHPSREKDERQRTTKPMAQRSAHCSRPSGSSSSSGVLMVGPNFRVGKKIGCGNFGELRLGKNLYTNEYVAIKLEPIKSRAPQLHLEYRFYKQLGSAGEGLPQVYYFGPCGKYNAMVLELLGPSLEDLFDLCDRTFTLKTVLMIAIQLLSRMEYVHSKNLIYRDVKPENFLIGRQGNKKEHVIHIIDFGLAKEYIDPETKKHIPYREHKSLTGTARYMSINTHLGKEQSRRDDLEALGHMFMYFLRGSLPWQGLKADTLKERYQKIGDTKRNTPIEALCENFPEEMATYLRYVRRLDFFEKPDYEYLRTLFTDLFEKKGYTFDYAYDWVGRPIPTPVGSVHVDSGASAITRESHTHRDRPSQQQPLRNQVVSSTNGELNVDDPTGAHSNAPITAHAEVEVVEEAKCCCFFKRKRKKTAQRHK
# From the text: as §1
IC50 [1] [µM],IC50 [2] [µM],IC50 [3] [µM],IC50 [4] [µM],IC50 [5] [µM],IC50 [6] [µM],IC50 [7] [µM],IC50 [8] [µM],IC50 [9] [µM],IC50 [10] [µM],IC50 [11] [µM],IC50 [12] [µM],SMILES
> 10,> 10,> 10,> 10,> 10,> 10,> 10,> 10,> 10,> 10,> 10,> 10,"C[C@H]1COCCN1c1nc(-c2ccc(NC(=O)NC3CC3)cc2)cc(-c2cc(F)ccc2S(C)(=O)=O)n1 [Example 40, (S)-1-cyclopropyl-3-(4-(6-(5-fluoro-2-(methylsulfonyl)phenyl)-2-(3-methylmorpholino)pyrimidin-4-yl)phenyl)urea]"
> 10,> 10,> 10,> 10,> 10,> 10,> 10,> 10,> 10,> 10,> 10,> 10,"C[C@H]1COCCN1c1cc(-c2ccccc2S(C)(=O)=O)nc(-c2ccc(NC(=O)NC3CC3)cc2)n1 [Example 6, (S)-1-cyclopropyl-3-(4-(4-(3-methylmorpholino)-6-(2-(methylsulfonyl)phenyl)pyrimidin-2-yl)phenyl)urea]"
> 10,> 10,> 10,> 10,> 10,> 10,> 10,> 10,> 10,> 10,> 10,> 10,"CCNC(=O)Nc1ccc(-c2cc(-c3ccccc3C#N)nc(N3CCOC[C@@H]3C)n2)cc1 [Example 8, (S)-1-(4-(6-(2-cyanophenyl)-2-(3-methylmorpholino)pyrimidin-4-yl)phenyl)-3-ethylurea]"
> 10,> 10,> 10,> 10,> 10,> 10,> 10,> 10,> 10,> 10,> 10,> 10,"C[C@H]1COCCN1c1nc(-c2ccc(NC(=O)NC3CC3)cc2)cc(-c2cccnc2S(C)(=O)=O)n1 [Example 46, (S)-1-cyclopropyl-3-(4-(2-(3-methylmorpholino)-6-(2-(methylsulfonyl)pyridin-3-yl)pyrimidin-4-yl)phenyl)urea]"
> 10,> 10,> 10,> 10,> 10,> 10,> 10,> 10,> 10,> 10,> 10,> 10,"C[C@H]1COCCN1c1nc(-c2ccc(NC(=O)N[C@H]3CCC[C@@H]3O)cc2)cc(-c2cc(F)ccc2S(C)(=O)=O)n1 [Example 76, 1-(4-(6-(5-fluoro-2-(methylsulfonyl)phenyl)-2-((S)-3-methylmorpholino)pyrimidin-4-yl)phenyl)-3-((1S,2S)-2-hydroxycyclopentyl)urea]"
> 10,> 10,> 10,–,> 10,> 10,> 10,> 10,> 10,> 10,> 10,> 10,"C[C@H]1COCCN1c1cc(-c2ccccn2)nc(-c2ccc(NC(=O)NCCO)cc2)n1 [Example 43, (S)-1-(2-hydroxyethyl)-3-(4-(4-(3-methylmorpholino)-6-(pyridin-2-yl)pyrimidin-2-yl)phenyl)urea]"
> 10,> 10,> 10,> 10,> 10,> 10,> 10,> 10,> 10,> 10,> 10,> 10,"C[C@H]1COCCN1c1nc(-c2ccc(NC(=O)NC3CC3)cc2)cc(-c2ccccc2S(C)(=O)=O)n1 [Example 4, (S)-1-cyclopropyl-3-(4-(2-(3-methylmorpholino)-6-(2-(methylsulfonyl)phenyl)pyrimidin-4-yl)phenyl)urea]"
